In US10975060B2, “High relaxivity gadolinium chelate compounds for use in magnetic resonance imaging” (BAYER PHARMA AKTIENGESELLSCHAFT, priority 2016, dated 2021):
“Also recorded” adds a separate entry of the source.

Key:
[1] = Water solubility (exploratory, 10 mM Tris-HCl, 20 °C); type: physicochemical; settings: water (10 mM Tris-HCl buffer), pH 7.4
Procedure: The exploratory water solubilities of the compounds were determined at room temperature (20° C.) in 0.5 mL buffer solution (10 mM Tris-HCl) in the microcentrifuge tubes (Eppendorf, 2.0 mL safe-lock caps). The solid compounds were added stepwise to the buffer solution. The suspension was mixed using a shaker (Heidolph Reax 2000) and treated 5 min in an ultrasound bath (Bandelin, Sonorex Super RK255H).

[2] = Pharmacokinetic parameters of blood plasma levels after i.v. bolus in male rats (three compartment model); type: in vivo, rats (Han-Wistar)
Procedure: Pharmacokinetic parameters of Example 6 were determined in male rats (Han-Wistar, 235-270 g, n=3). The compound was administered as a sterile aqueous solution (53.8 mmol Gd/L) as a bolus in the tail vein of the animals. The dose was 0.1 mmol Gd/kg. Blood was sampled 1, 3, 5, 10, 15, 30, 60, 90, 120, 240, 360, 480, and 1440 min post injection and the Gd concentration was determined by Inductively Coupled Plasma Mass Spectrometry (ICP-MS Agilent 7500a, Waldbronn, Germany). The blood level was converted to plasma concentrations by division by 0.625 (plasma fraction of rat blood, assuming strictly extracellular distribution). As a control, 3 animals (Han-Wistar, 248-289 g), were treated in the same way with Reference Compound 1 (Gadovist®), a low molecular weight contrast agent.
The fit of the obtained data to a three compartment model (Phoenix-WinNonlin) yielded the pharmacokinetic parameters which are shown in Table 3.

[3] = Relaxivity measurements at 1.4 T (MiniSpec mq60, 60 MHz, 37 °C) in water and human plasma; type: physicochemical; settings: 1.41 T, normalized to Gd
Summary of the method: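 T1 by inversion recovery and T2 by CPMG, relaxation delay ≥5×T1, at three Gd concentrations between 0.05 and 2 mM in water or fresh citrated human plasma. Relaxivities r1, r2 taken as slopes of relaxation rate versus Gd concentration, verified by ICP-MS.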

[4] = Dynamic CT diffusion phantom study (dialysis cassette in fetal bovine serum); type: physicochemical; settings: dialysis cassette 20,000 MWCO, 20 mmol Gd/L, CT signal over 30 h
Summary of the method: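 Contrast agent at 20 mmol Gd/L in a 20 kDa MWCO dialysis cassette was placed in fetal bovine serum. Diffusion was followed by clinical CT at 100 kV and 104 mA at time points from 0 min to 30 h. Regions of interest were drawn on one central 2.4 mm slice per time point.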

[5] = Contrast-enhanced magnetic resonance angiography (CE-MRA) at 1.5 T, intraindividual comparison; type: in vivo, New Zealand white rabbits; settings: rabbits
Procedure: Reference compound 1 (Gadovist®), as an approved representative of the Gadolinium-based MRI contrast agents, was used in both dose protocols (100 μmol Gd/kg bw and 25 μmol Gd/kg bw) and compared to example compound 6 (25 μmol Gd/kg bw).
The contrast-enhanced magnetic resonance angiography study was performed at a clinical 1.5 T Scanner (Magnetom Avanto Fit, Siemens Healthcare, Erlangen, Germany). For optimal signal exploitation, a spine in combination with a body-flex coil was used for the data acquisition. The study was performed on male New Zealand white rabbits (weight 3.6-3.9 kg, n=4, Charles River Kisslegg). The animals received all 3 contrast protocols within one imaging session. The order of the contrast protocols was randomized between the animals.
All animals are initially anesthetized using a body weight-adjusted intramuscular injection of a mixture (1+2) of xylazine hydrochloride (20 mg/mL, Rompun 2%, Bayer Vital GmbH, Leverkusen, Germany) and ketamine hydrochloride (100 mg/mL, Ketavet, Pfizer, Pharmacia GmbH, Berlin, Germany) using 1 mL/kg body weight. The continuous anesthesia of the intubated animals (endotracheal tube, Rueschelit Super Safe Clear, cuff 3.0 mm, Willy Ruesch A G, Kernen, Germany) is achieved by the intravenous injection of 0.9 mg propofol per kilogram per hour (10 mg/mL, Propofol-Lipuro 1%, B. Braun Melsungen A G, Melsungen, Germany). The continuous intravenous injection is performed using a MR infusion system (Continuum MR Infusion System, Medrad Europe B. V., A E Beek, Germany). The tracheal respiration (SV 900C, Maquet, Rastatt, Germany) is performed with 55% oxygen, forty breaths per minute, and a breathing volume of 4 mL per kilogram body weight per minute.
Based on a localizer MRI sequence oriented in coronal, axial, and sagittal directions the anatomic course of the aorta is acquired. A small intravenous test bolus (0.2 mL, Reference compound 1 followed by 1.3 mL saline) was administered to determine the time to peak interval (descending aorta) using a test bolus sequence. The MRA delay time between the start of the contrast injection and the start of image acquisition was calculated by subtracting the time to k-space center from the time to peak interval. For MRA a 3D FLASH sequence (TR=3.3 ms, TE=1.2 ms, flip=25°) was acquired before and after injection of the contrast agent considering the delay time. Both measurements were performed within expiratory breath hold. The time interval for the intraindividual comparison between the different contrast agent applications was twenty to thirty minutes.
Quantitative image evaluation was performed on the subtraction images (post contrast—baseline). […]

[6] = Gd-complex stabilities in human plasma at 37 °C, 15 d (released Gd3+ by HPLC-ICP-MS); type: in vitro ADME
Procedure: Gd-Complex Stabilities in Human Plasma at 37° C., 15 d
Example 1 was separately dissolved in human plasma at 1 mmol Gd/L. As a reference for released Gd^3+ 0.1 mmol/L Gadolinium chloride (GdCl3) was dissolved in human plasma. The plasma samples were incubated for 15 days at 37° C. under 5% CO2 atmosphere to maintain the pH at 7.4. Aliquots were taken at the start and end of the incubation. The amount of Gd^3+ released from the complexes was determined by HPLC-ICP-MS. Column: Chelating Sepharose (HiTrap, 1 mL). Solvent A: 10 mM BisTris-HCl pH 6.0. Solvent B: 15 mM HNO3. Gradient: 3 min at 100% A, from 3 to 10 min at 100% B. Flow 1 mL/min. Detection by ICP-MS, tuned to ^158Gd. The chromatograms, displaying the intensity of the detected Gd, were evaluated by peak area analysis. The size of the peak of Gd^3+, eluting after the change from solvent A to B, was recorded. For Example 1 the increase of this peak and thus the release of Gd^3 after 15 days was below the limit of quantification (<0.1% of the injected total amount of Gadolinium). Example 1 is stable under physiological conditions.

[7] = Chemical stability: autoclaving at 121 °C for 20 min in 10 mM Tris-HCl pH 7.4, HPLC-ICP-MS; type: physicochemical; settings: 5 mmol Gd/L in 10 mM Tris-HCl pH 7.4, 121 °C
Procedure: The aliquot removed before and after autoclaving was analyzed by HPLC-ICP-MS to determine the integrity of the compound.
HPLC: Column: Hypercarb 2.5 mm×15 cm. Solvent A: 0.1% formic acid in water. Solvent B: acetonitrile. Gradient from 100% A to 5% A+95% B in 10 min. Flow 1 ml/min. Detection by ICP-MS, tuned to ^158Gd. The chromatograms, displaying the intensity of the detected Gd, were visually compared. No changes in the chromatograms before and after autoclaving were detected. The compound was stable during the autoclaving procedure.

[8] = Relaxivity measurements at 3.0 T (whole body MRI scanner, 37 °C) in water and human plasma; type: physicochemical; settings: normalized to Gd, average ± standard deviation
Summary of the method: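 T1 relaxivity measured on a 3.0 T whole-body MRI scanner at 37 °C in water and fresh citrated human plasma; inversion-recovery sequence, TE 7.46 ms, TIs 50–4500 ms. Three concentrations per compound between 0.05 and 2 mM; ri derived from slope of Ri versus Gd-normalised concentration.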

[9] = i.v. bolus 0.1 mmol Gd/kg, mean, n=3
[10] = subtraction images, carotid artery, aorta, renal arteries

CC(C)CN(CC(=O)NCC(CNC(=O)CN(CC(C)C)C(=O)CN1CCN(CC(=O)[O-])CCN(CC(=O)[O-])CCN(CC(=O)[O-])CC1)(CNC(=O)CN(CC(C)C)C(=O)CN1CCN(CC(=O)[O-])CCN(CC(=O)[O-])CCN(CC(=O)[O-])CC1)CNC(=O)CN(CC(C)C)C(=O)CN1CCN(CC(=O)[O-])CCN(CC(=O)[O-])CCN(CC(=O)[O-])CC1)C(=O)CN1CCN(CC(=O)[O-])CCN(CC(=O)[O-])CCN(CC(=O)[O-])CC1.[Gd+3].[Gd+3].[Gd+3].[Gd+3] [Example 6, Tetragadolinium {4,10-bis(carboxylatomethyl)-7-[3-isobutyl-8,8-bis({[(isobutyl{[4,7,10-tris(carboxylatomethyl)-1,4,7,10-tetraazacyclododecan-1-yl]acetyl}amino)acetyl]-amino}methyl)-15-methyl-2,5,11-trioxo-13-{[4,7,10-tris(carboxylatomethyl)-1,4,7,10-tetraazacyclododecan-1-yl]acetyl}-3,6,10,13-tetraazahexadec-1-yl]-1,4,7,10-tetraaza-cyclododecan-1-yl}acetate]
Solubility [1]: >1000 mg/100 mL | pharmacokinetic compared to that of the reference compound 1 ([2]; 0.1 mmol Gd/kg i.v.): very similar | AUC∞ Area under the curve (to infinity) [2, 9]: 10801 µmol·min/L | MRT Mean residence time [2, 9]: 40.7 min | V1 + V2 Volume, compartments V1 + V2 [2, 9]: 0.14 L/kg | V2 Volume, compartment V2 [2, 9]: 0.12 L/kg | Vd, ss Volume of distribution at steady state [2, 9]: 0.27 L/kg | t½ α Half-life, compartment V1 [2, 9]: 2.45 min | t½ β Half-life, compartment V2 [2, 9]: 22.4 min | t½ γ Half-life, compartment V3 [2, 9]: 1041 min | r1 human plasma [3]: 14.1 L/mmol/s | r1 water [3]: 11.6 L/mmol/s | Diffusion half-live (20 kDa) [4]: 15.0 h | vascular contrast (MR-angiograms, qualitative) at 25 μmol/kg compared to reference compound 1 at 100 μmol/kg ([5]; example compound 6 at 25 μmol Gd/kg bw): No qualitative difference | signal enhancement at vascular regions, 25 μmol/kg compared to reference compound 1 at reduced (identical) dose (25 μmol/kg) [5, 10]: significantly (p<0.001) higher | signal enhancement at vascular regions, 25 μmol/kg compared to reference compound 1 at standard dose (100 μmol/kg) [5, 10]: No significant difference; also recorded: similar

CN(CC(=O)NCC(CNC(=O)CN(C)C(=O)CN1CCN(CC(=O)[O-])CCN(CC(=O)[O-])CCN(CC(=O)[O-])CC1)(CNC(=O)CN(C)C(=O)CN1CCN(CC(=O)[O-])CCN(CC(=O)[O-])CCN(CC(=O)[O-])CC1)CNC(=O)CN(C)C(=O)CN1CCN(CC(=O)[O-])CCN(CC(=O)[O-])CCN(CC(=O)[O-])CC1)C(=O)CN1CCN(CC(=O)[O-])CCN(CC(=O)[O-])CCN(CC(=O)[O-])CC1.[Gd+3].[Gd+3].[Gd+3].[Gd+3] [Example 1, Tetragadolinium [4,10-bis(carboxylatomethyl)-7-{3,13-dimethyl-8,8-bis({[(methyl{[4,7,10-tris(carboxylatomethyl)-1,4,7,10-tetraazacyclododecan-1-yl]acetyl}amino)-acetyl]amino}methyl)-2,5,11,14-tetraoxo-15-[4,7,10-tris(carboxylatomethyl)-1,4,7,10-tetraazacyclododecan-1-yl]-3,6,10,13-tetraazapentadec-1-yl}-1,4,7,10-tetraazacyclo-dodecan-1-yl]acetate]
release of Gd3+ after 15 days ([6]; 1 mmol Gd/L, pH 7.4, below the limit of quantification): < 0.1 % of the injected total amount of Gadolinium | stability under physiological conditions ([6]; 15 days): stable | Solubility [1]: >1000 mg/100 mL | appearance of the solution after autoclaving [7]: clear and colorless | changes in the chromatograms (HPLC-ICP-MS) before and after autoclaving [7]: No changes | stability during the autoclaving procedure [7]: stable | r1 human plasma [3]: 11.7 L/mmol/s | r1 water [3]: 10.1 L/mmol/s | Diffusion half-live (20 kDa) [4]: 10.4 h | r1 human plasma ([8]; human plasma): 10.3 ± 0.2 L/mmol/s | r1 water ([8]; water): 9.1 ± 0.1 L/mmol/s
